System: MV-4-11 cells
Test: Gene expression microarray analysis (Affymetrix PrimeView) and GSEA
Assay type: cell-based, human
Set-up: RFU PODN (11730768_x_at) / Fold change /veh PODN (11730768_x_at) / RFU LINC00158 (11744669_a_at) / Fold change /veh LINC00158 (11744669_a_at) / RFU DUSP10 (11751237_a_at) / Fold change /veh DUSP10 (11751237_a_at) / RFU ID3 (11757404_x_at) / Fold change /veh ID3 (11757404_x_at) / RFU PLEKHG5 (11737974_s_at) / Fold change /veh PLEKHG5 (11737974_s_at) / RFU LRRC4B (11730491_at) / Fold change /veh LRRC4B (11730491_at) / RFU GIMAP4 (11747438_a_at) / Fold change /veh GIMAP4 (11747438_a_at) / RFU KRT8 (11758183_x_at) / Fold change /veh KRT8 (11758183_x_at) / RFU CNN1 (11734310_a_at) / Fold change /veh CNN1 (11734310_a_at) / RFU VPS37D (11726825_at) / Fold change /veh VPS37D (11726825_at) / RFU C10orf10 (11716522_x_at) / Fold change /veh C10orf10 (11716522_x_at) / RFU KIR2DL2 /// KIR2DL4 /// KIR2DL5A /// KIR2DL5B /// KIR2DS1 /// KIR2DS2 /// KIR2DS3 /// KIR2DS4 /// KIR3DL3 /// KIR3DL3 /// KIR3DS1 (11738374_at) / Fold change /veh KIR2DL2 /// KIR2DL4 /// KIR2DL5A /// KIR2DL5B /// KIR2DS1 /// KIR2DS2 /// KIR2DS3 /// KIR2DS4 /// KIR3DL3 /// KIR3DL3 /// KIR3DS1 (11738374_at) / RFU C1QL1 (11718748_at) / Fold change /veh C1QL1 (11718748_at) / RFU TMPRSS4 (11747572_a_at) / Fold change /veh TMPRSS4 (11747572_a_at) / RFU HAMP (11756126_x_at) / Fold change /veh HAMP (11756126_x_at) / RFU RNFT2 (11725882_a_at) / Fold change /veh RNFT2 (11725882_a_at) / RFU NR4A2 (11747474_a_at) / Fold change /veh NR4A2 (11747474_a_at) / RFU ABCC12 (11746883_a_at) / Fold change /veh ABCC12 (11746883_a_at) / RFU TMEM136 (11760407_x_at) / Fold change /veh TMEM136 (11760407_x_at) / RFU CLDN22 /// WWC2 (11732394_at) / Fold change /veh CLDN22 /// WWC2 (11732394_at) / RFU HLA-DPB1 (11760878_x_at) / Fold change /veh HLA-DPB1 (11760878_x_at) / RFU SPINT1 (11716480_a_at) / Fold change /veh SPINT1 (11716480_a_at) / RFU GAP43 (11754022_s_at) / Fold change /veh GAP43 (11754022_s_at) / RFU A4GNT (11735810_at) / Fold change /veh A4GNT (11735810_at) / RFU PRB3 (11715151_x_at) / Fold change /veh PRB3 (11715151_x_at) / RFU TUBB4B (11761932_at) / Fold change /veh TUBB4B (11761932_at) / RFU CAPN14 (11732068_a_at) / Fold change /veh CAPN14 (11732068_a_at) / RFU TMCC2 (11721928_a_at) / Fold change /veh TMCC2 (11721928_a_at) / RFU IRGQ (11745062_a_at) / Fold change /veh IRGQ (11745062_a_at) / RFU FAM174B (11720279_a_at) / Fold change /veh FAM174B (11720279_a_at) / RFU TMPRSS4 (11748680_a_at) / Fold change /veh TMPRSS4 (11748680_a_at) / RFU FAM212B (11763350_a_at) / Fold change /veh FAM212B (11763350_a_at) / RFU PLEKHG5 (11743358_a_at) / Fold change /veh PLEKHG5 (11743358_a_at) / RFU ZSCAN30 (11745921_a_at) / Fold change /veh ZSCAN30 (11745921_a_at) / RFU CMKLR1 (11741424_a_at) / Fold change /veh CMKLR1 (11741424_a_at) / RFU LOC101060620 /// MAPK8IP1 (11723275_at) / Fold change /veh LOC101060620 /// MAPK8IP1 (11723275_at) / RFU SPTSSB (11747773_x_at) / Fold change /veh SPTSSB (11747773_x_at) / RFU PRSS12 (11739890_at) / Fold change /veh PRSS12 (11739890_at) / RFU BIN1 (11741810_x_at) / Fold change /veh BIN1 (11741810_x_at) / RFU WNT11 (11732464_a_at) / Fold change /veh WNT11 (11732464_a_at) / RFU C10orf10 (11716521_a_at) / Fold change /veh C10orf10 (11716521_a_at) / RFU C5orf56 (11738089_at) / Fold change /veh C5orf56 (11738089_at) / RFU CYB561 (11721691_x_at) / Fold change /veh CYB561 (11721691_x_at) / RFU ANKRD19P (11752326_a_at) / Fold change /veh ANKRD19P (11752326_a_at) / RFU OR2T12 /// OR2T33 /// OR2T8 (11738714_s_at) / Fold change /veh OR2T12 /// OR2T33 /// OR2T8 (11738714_s_at) / RFU VCAN (11748164_a_at) / Fold change /veh VCAN (11748164_a_at) / RFU JSRP1 (11732532_at) / Fold change /veh JSRP1 (11732532_at) / RFU KRTAP10-11 (11738290_x_at) / Fold change /veh KRTAP10-11 (11738290_x_at) / RFU MYO3A (11730013_a_at) / Fold change /veh MYO3A (11730013_a_at) / RFU EBF3 (11725865_a_at) / Fold change /veh EBF3 (11725865_a_at) / RFU CAMK2N1 (11719241_x_at) / Fold change /veh CAMK2N1 (11719241_x_at) / RFU C5orf56 (11738088_a_at) / Fold change /veh C5orf56 (11738088_a_at) / RFU OLFML3 (11715873_a_at) / Fold change /veh OLFML3 (11715873_a_at) / RFU LOC100653217 /// NTM (11731650_a_at) / Fold change /veh LOC100653217 /// NTM (11731650_a_at) / RFU MAPK11 (11762145_a_at) / Fold change /veh MAPK11 (11762145_a_at) / RFU FIZ1 (11724087_x_at) / Fold change /veh FIZ1 (11724087_x_at) / RFU OASL (11726364_x_at) / Fold change /veh OASL (11726364_x_at) / RFU SOX15 (11748057_x_at) / Fold change /veh SOX15 (11748057_x_at) / RFU CD79A (11719716_a_at) / Fold change /veh CD79A (11719716_a_at) / RFU HIST1H1D (11736915_at) / Fold change /veh HIST1H1D (11736915_at) / RFU CASKIN2 (11723855_a_at) / Fold change /veh CASKIN2 (11723855_a_at) / RFU LOC730098 (11760151_x_at) / Fold change /veh LOC730098 (11760151_x_at) / RFU OR4N2 (11742367_at) / Fold change /veh OR4N2 (11742367_at) / RFU PRRT2 (11749266_a_at) / Fold change /veh PRRT2 (11749266_a_at) / RFU SNX32 (11753110_a_at) / Fold change /veh SNX32 (11753110_a_at) / RFU CDHR5 (11726645_a_at) / Fold change /veh CDHR5 (11726645_a_at) / RFU RCAN1 (11760418_a_at) / Fold change /veh RCAN1 (11760418_a_at) / RFU FAM167A (11723789_a_at) / Fold change /veh FAM167A (11723789_a_at) / RFU FAM26E (11764081_at) / Fold change /veh FAM26E (11764081_at) / RFU ISYNA1 (11749810_s_at) / Fold change /veh ISYNA1 (11749810_s_at) / RFU ACY1 (11761880_at) / Fold change /veh ACY1 (11761880_at) / RFU 11764098_at / Fold change /veh 11764098_at / RFU SAMD14 (11745864_x_at) / Fold change /veh SAMD14 (11745864_x_at) / RFU NPB (11741838_a_at) / Fold change /veh NPB (11741838_a_at) / RFU TMPRSS6 (11731388_a_at) / Fold change /veh TMPRSS6 (11731388_a_at) / RFU KRTAP10-2 (11738614_at) / Fold change /veh KRTAP10-2 (11738614_at) / RFU ARHGAP8 /// PRR5-ARHGAP8 (11727945_x_at) / Fold change /veh ARHGAP8 /// PRR5-ARHGAP8 (11727945_x_at) / RFU KRTAP5-7 /// NADSYN1 (11734609_at) / Fold change /veh KRTAP5-7 /// NADSYN1 (11734609_at) / RFU RASL12 (11751679_a_at) / Fold change /veh RASL12 (11751679_a_at) / RFU CDKN2B (11736163_a_at) / Fold change /veh CDKN2B (11736163_a_at) / RFU PRF1 (11729649_at) / Fold change /veh PRF1 (11729649_at) / RFU, ZNF638 /// ZNF638-IT1 / Fold change vs veh, ZNF638 /// ZNF638-IT1 / RFU, PANK3 / Fold change vs veh, PANK3 / RFU, SH3YL1 / Fold change vs veh, SH3YL1 / RFU, ZEB2 / Fold change vs veh, ZEB2 / RFU, NRIP1 / Fold change vs veh, NRIP1 / RFU, PTTG1IP / Fold change vs veh, PTTG1IP / RFU, CAPN2 / Fold change vs veh, CAPN2 / RFU, MED14 / Fold change vs veh, MED14 / RFU, SNORA58 / Fold change vs veh, SNORA58 / RFU, C1orf63 / Fold change vs veh, C1orf63 / RFU, LRRFIP1 / Fold change vs veh, LRRFIP1 / RFU, NDUFAF7 / Fold change vs veh, NDUFAF7 / RFU, SLC12A2 / Fold change vs veh, SLC12A2 / RFU, IBTK / Fold change vs veh, IBTK / RFU, ESF1 / Fold change vs veh, ESF1 / Fold change vs veh, TMEM50B / RFU, TAOK1 / Fold change vs veh, TAOK1 / RFU, ACBD3 / Fold change vs veh, ACBD3 / RFU, TMA16 / Fold change vs veh, TMA16 / RFU, RWDD3 / Fold change vs veh, RWDD3 / RFU, BCAT1 / Fold change vs veh, BCAT1 / RFU, EDEM3 / Fold change vs veh, EDEM3 / RFU, TMEM33 / Fold change vs veh, TMEM33 / RFU, WDR75 / Fold change vs veh, WDR75 / RFU, AHCTF1 / Fold change vs veh, AHCTF1 / RFU, TFRC / Fold change vs veh, TFRC / RFU, ZDHHC17 / Fold change vs veh, ZDHHC17 / RFU, NOM1 / Fold change vs veh, NOM1 / RFU, ARL8B / Fold change vs veh, ARL8B / RFU, ZBTB11 / Fold change vs veh, ZBTB11 / RFU, TAMM41 / Fold change vs veh, TAMM41 / RFU, KIAA1704 /// LOC100996395 / Fold change vs veh, KIAA1704 /// LOC100996395 / RFU, ING1 / Fold change vs veh, ING1 / RFU, TRMT61B / Fold change vs veh, TRMT61B / RFU, FUBP3 / Fold change vs veh, FUBP3 / RFU, TP53 / Fold change vs veh, TP53 / RFU, TNKS2 / Fold change vs veh, TNKS2 / RFU, ZFP14 / Fold change vs veh, ZFP14 / RFU, ACTR2 / Fold change vs veh, ACTR2 / RFU, PPP3R1 / Fold change vs veh, PPP3R1 / RFU, PIK3R1 / Fold change vs veh, PIK3R1 / RFU, HNRNPA1 / Fold change vs veh, HNRNPA1 / RFU, RNF170 / Fold change vs veh, RNF170 / RFU, ZNF28 / Fold change vs veh, ZNF28 / RFU, RNGTT / Fold change vs veh, RNGTT / RFU, OGT / Fold change vs veh, OGT / RFU, BRD1 / Fold change vs veh, BRD1 / RFU, MARS / Fold change vs veh, MARS / RFU, ZNF655 / Fold change vs veh, ZNF655 / RFU, FAHD1 / Fold change vs veh, FAHD1 / RFU, BDP1 / Fold change vs veh, BDP1 / RFU, LRRCC1 / Fold change vs veh, LRRCC1 / RFU, ARID1A / Fold change vs veh, ARID1A / RFU, ZNF146 / Fold change vs veh, ZNF146 / RFU, ZNF330 / Fold change vs veh, ZNF330 / RFU, GPN3 / Fold change vs veh, GPN3 / RFU, C9orf123 / Fold change vs veh, C9orf123 / RFU, N4BP2L2 / Fold change vs veh, N4BP2L2 / RFU, ARFIP1 / Fold change vs veh, ARFIP1 / RFU, FAM179B / Fold change vs veh, FAM179B / RFU, BCL10 / Fold change vs veh, BCL10 / RFU, UHRF1BP1L / Fold change vs veh, UHRF1BP1L / RFU, BET1 / Fold change vs veh, BET1 / RFU, CNOT2 / Fold change vs veh, CNOT2 / RFU, ZNF268 / Fold change vs veh, ZNF268 / Fold change vs veh, ZNF507 / RFU, DGCR2 / Fold change vs veh, DGCR2 / RFU, WDSUB1 / Fold change vs veh, WDSUB1 / Fold change vs veh, HSP90B1 /// MIR3652 / RFU, ADSS / Fold change vs veh, ADSS / RFU, GK / Fold change vs veh, GK / RFU, ZNF148 / Fold change vs veh, ZNF148 / RFU, TAF9 / Fold change vs veh, TAF9 / RFU, SLC1A5 / Fold change vs veh, SLC1A5 / RFU, SLMO2 / Fold change vs veh, SLMO2 / RFU, ABCC4 / Fold change vs veh, ABCC4 / RFU, LOC101060439 /// RAP1B / Fold change vs veh, LOC101060439 /// RAP1B / RFU, RFX7 / Fold change vs veh, RFX7 / RFU, GTPBP10 / Fold change vs veh, GTPBP10 / RFU, CNEP1R1 / Fold change vs veh, CNEP1R1 / RFU, BIVM-ERCC5 /// ERCC5 / Fold change vs veh, BIVM-ERCC5 /// ERCC5 / RFU, ILF3 / Fold change vs veh, ILF3 / RFU 11762660_at / Fold change /veh 11762660_at / RFU VCAN (11757783_s_at) / Fold change /veh VCAN (11757783_s_at) / RFU DDX43 (11728927_at) / Fold change /veh DDX43 (11728927_at) / RFU KRT8 (11758188_x_at) / Fold change /veh KRT8 (11758188_x_at) / RFU NKD1 (11759106_at) / Fold change /veh NKD1 (11759106_at) / RFU SRD5A1 (11742802_a_at) / Fold change /veh SRD5A1 (11742802_a_at) / RFU TPSAB1 /// TPSB2 (11721975_s_at) / Fold change /veh TPSAB1 /// TPSB2 (11721975_s_at) / RFU GSTM3 (11746129_a_at) / Fold change /veh GSTM3 (11746129_a_at) / RFU IL23R (11737362_x_at) / Fold change /veh IL23R (11737362_x_at) / RFU TMEM51 (11727254_a_at) / Fold change /veh TMEM51 (11727254_a_at) / RFU PIWIL2 (11732686_x_at) / Fold change /veh PIWIL2 (11732686_x_at) / RFU ORM1 (11744905_x_at) / Fold change /veh ORM1 (11744905_x_at) / RFU CCDC152 (11743942_at) / Fold change /veh CCDC152 (11743942_at) / RFU ECM1 (11717891_a_at) / Fold change /veh ECM1 (11717891_a_at) / RFU IL23R (11748794_a_at) / Fold change /veh IL23R (11748794_a_at) / RFU TNFAIP8L3 (11732012_x_at) / Fold change /veh TNFAIP8L3 (11732012_x_at) / RFU MBOAT4 (11741988_at) / Fold change /veh MBOAT4 (11741988_at) / RFU 11764193_at / Fold change /veh 11764193_at / RFU TMEM53 (11763286_at) / Fold change /veh TMEM53 (11763286_at) / RFU MAGEB2 (11727129_at) / Fold change /veh MAGEB2 (11727129_at) / RFU TMEM200A (11744735_a_at) / Fold change /veh TMEM200A (11744735_a_at) / RFU CCDC152 (11751479_a_at) / Fold change /veh CCDC152 (11751479_a_at) / RFU FAM211A (11726209_a_at) / Fold change /veh FAM211A (11726209_a_at) / RFU RGS16 (11746705_a_at) / Fold change /veh RGS16 (11746705_a_at) / RFU VCAN (11755009_s_at) / Fold change /veh VCAN (11755009_s_at) / RFU RHOB (11743442_s_at) / Fold change /veh RHOB (11743442_s_at) / RFU RGS16 (11720943_a_at) / Fold change /veh RGS16 (11720943_a_at) / RFU RGS16 (11720944_at) / Fold change /veh RGS16 (11720944_at) / RFU, VPS4B / Fold change vs veh, VPS4B / RFU, CREB1 / Fold change vs veh, CREB1 / RFU, DNAJC13 / Fold change vs veh, DNAJC13 / RFU, GNAQ / Fold change vs veh, GNAQ / RFU, CDK5R1 / Fold change vs veh, CDK5R1 / RFU, ZRANB3 / Fold change vs veh, ZRANB3 / RFU, CUL4A / Fold change vs veh, CUL4A / RFU, CCNY / Fold change vs veh, CCNY / RFU, UFL1 / Fold change vs veh, UFL1 / RFU, COG3 / Fold change vs veh, COG3 / RFU, DIAPH2 / Fold change vs veh, DIAPH2 / RFU, SKA2 / Fold change vs veh, SKA2 / RFU, AFF3 / Fold change vs veh, AFF3 / RFU, LMF1 / Fold change vs veh, LMF1 / RFU, IPO11 / Fold change vs veh, IPO11 / RFU, DFFB / Fold change vs veh, DFFB / RFU, FOXP1 / Fold change vs veh, FOXP1 / RFU, CARD8 / Fold change vs veh, CARD8 / RFU, STRN3 / Fold change vs veh, STRN3 / RFU, ADK / Fold change vs veh, ADK / RFU, RASSF2 / Fold change vs veh, RASSF2 / RFU, WIPF1 / Fold change vs veh, WIPF1 / RFU, LARP1B / Fold change vs veh, LARP1B / RFU, RASA1 / Fold change vs veh, RASA1 / RFU, RB1 / Fold change vs veh, RB1 / RFU, PPFIA1 / Fold change vs veh, PPFIA1 / RFU, MAT2A / Fold change vs veh, MAT2A / RFU, CCT5 / Fold change vs veh, CCT5 / RFU, WDR92 / Fold change vs veh, WDR92 / RFU, CUX1 / Fold change vs veh, CUX1 / RFU, TTC7A / Fold change vs veh, TTC7A / RFU, TMEM135 / Fold change vs veh, TMEM135 / RFU, DEPTOR / Fold change vs veh, DEPTOR / RFU, CPM / Fold change vs veh, CPM / RFU, DNAJB6 / Fold change vs veh, DNAJB6 / RFU, CACNA2D3 / Fold change vs veh, CACNA2D3 / RFU, DTX4 / Fold change vs veh, DTX4 / RFU, TFCP2 / Fold change vs veh, TFCP2 / RFU, GMCL1 /// GMCL1P1 / Fold change vs veh, GMCL1 /// GMCL1P1 / RFU, AEBP2 / Fold change vs veh, AEBP2 / RFU, SNHG1 /// SNORD22 /// SNORD25 /// SNORD26 /// SNORD27 /// SNORD28 /// SNORD29 /// SNORD31 / Fold change vs veh, SNHG1 /// SNORD22 /// SNORD25 /// SNORD26 /// SNORD27 /// SNORD28 /// SNORD29 /// SNORD31 / Fold change (Aza/veh), C12orf56 (ProbeSet 11735607_a_at) / Fold change (ACY-1035/veh), C12orf56 (ProbeSet 11735607_a_at) / Fold change (Aza/veh), FGFR1OP (ProbeSet 11751329_s_at) / Fold change (ACY-1035/veh), FGFR1OP (ProbeSet 11751329_s_at) / Fold change (Aza/veh), VPS36 (ProbeSet 11739960_a_at) / Fold change (ACY-1035/veh), VPS36 (ProbeSet 11739960_a_at) / RFU SYPL1 (11715823_x_at) / Fold change /veh SYPL1 (11715823_x_at) / RFU IGFBP7 (11715501_s_at) / Fold change /veh IGFBP7 (11715501_s_at) / RFU REEP3 (11722064_at) / Fold change /veh REEP3 (11722064_at) / RFU IGLL1 (11728026_x_at) / Fold change /veh IGLL1 (11728026_x_at): dose or concentration left out as unconfirmed
Settings: MV-4-11 cells, 48 hours

Nc1ccc(-c2cccs2)cc1NC(=O)c1ccc2c(c1)cc(C1CC1)n2CCN1CCOCC1 [ACY-1035]
Fold change /veh KRTAP5-7 /// NADSYN1 (11734609_at): 0.96

Source: PMC5218480 (PLoS ONE, 2017)
